Like-named read-outs stand apart in the source and are kept apart here.
Tests used:
SARS‐CoV‐2 Nsp15 [1] = target: T1, SARS‐CoV‐2 Nsp15 (Severe acute respiratory syndrome coronavirus 2, UniProt P0DTD1); assay: biochemical
SARS‐CoV‐2 Nsp15 [2] = target: T1, SARS‐CoV‐2 Nsp15; assay: biochemical; format: biochemical; details: for inhibition at 10 µM: read-out: Inhibition % +L-Cys 10 µM
Nsp15 [3] = target: T2, Nsp15 (Severe acute respiratory syndrome coronavirus 2, UniProt P0DTD1)
[4] = tested on: SARS‐CoV‐2 in Vero‐E6 cells; design: method as in Zaliani et al., 2022; details: ref Zaliani et al., 2022, read-out: EC50 cytopathic (CPE) assay; cited from earlier work
Vero‐E6 cells = details: cited from earlier work
[5] = design: method as in Zhao et al., 2021; details: ref Zhao et al., 2021; cited from earlier work
SARS‐CoV Nsp15 = details: previously reported; ref Ortiz‐Alcantara et al., 2010; read-out: inhibition potency of SARS‐CoV Nsp15; cited from earlier work
Nsp15 [6] = target: T2, Nsp15; details: measured particle size
[7] = Readout interference test: compound added after the enzymatic reaction ran to completion; details: normalized to the DMSO control; compound added after 1 h Nsp15/substrate reaction
[8] = 1 mM DTT buffer, confidence interval in brackets, read-out: IC50 + DTT (μM) (CI in μM)
[9] = DTT buffer, 30 min pre-incubation, read-out: IC50
[10] = hit confirmation, 10 µM, DTT buffer, read-out: HC inhibition % +DTT 10 µM
[11] = primary screen, 10 µM (Table S1), read-out: PS Inhibition % 10 µM
[12] = primary screen, 10 μM compound, 1 mM DTT buffer, normalized to 50 μM Congo red (100%) and DMSO (0%), read-out: PS inhibition % 10 μM (single point measurement)
[13] = 1 mM L-cysteine buffer, confidence interval in brackets, read-out: IC50 + L‐Cys (μM) (CI in μM)
[14] = DTT buffer (Table S1), read-out: IC50 +DTT

With `COc1cc2c(NC3CCN(C4CCCCC4)CC3)nc(N3CCCN(C(C)C)CC3)nc2cc1OCCCN1CCCCC1` [UNC0646] the IC50 (SARS‐CoV‐2 Nsp15 [1]; [8]) was 1.4 µM, the IC50 (SARS‐CoV‐2 Nsp15 [1]; [9]) was 1.36 µM and the inhibition at 10 µM (SARS‐CoV‐2 Nsp15 [1]; [10]) was 83.2%. The inhibition at 10 µM (SARS‐CoV‐2 Nsp15 [1]; [11]) was 75.3%, the inhibition at 10 µM (SARS‐CoV‐2 Nsp15 [1]; [12]) was 75.3% and the inhibition at 10 µM (SARS‐CoV‐2 Nsp15 [2]; 10 µM, L-cysteine buffer) was 91.3%. The IC50 (SARS‐CoV‐2 Nsp15 [2]; [13]) was 0.7 µM, the IC50 (SARS‐CoV‐2 Nsp15 [2]; L‐cysteine buffer, read-out: IC50) was 0.73 µM and the “ΔT m°C nDSF” value (Nsp15 [3]) was 0 °C. The EC50 [4] was 35.4 µM and the CC50 (Vero‐E6 cells) was 18.6 µM.
Compound `COCCn1c2c([n+](Cc3cnccn3)c1C)C(=O)c1ccccc1C2=O` [YM‐155] has an IC50 (SARS‐CoV‐2 Nsp15 [1]; [8]) of 1.2 µM, an IC50 (SARS‐CoV‐2 Nsp15 [1]; [14]) of 1.23 µM and an inhibition at 10 µM (SARS‐CoV‐2 Nsp15 [1]; [10]) of 79.7%. The inhibition at 10 µM (SARS‐CoV‐2 Nsp15 [1]; [11]) was 74%, the inhibition at 10 µM (SARS‐CoV‐2 Nsp15 [1]; [12]) was 74% and the inhibition at 10 µM (SARS‐CoV‐2 Nsp15 [2]; 10 µM, L-cysteine buffer) was 12.4%. The “loss of the inhibition potency in L‐cysteine buffer” value (SARS‐CoV‐2 Nsp15 [2]; 1 mM L‐cysteine buffer compared with DTT buffer) was “more than 50%”, the “ΔT m°C nDSF” value (Nsp15 [3]) was 0.1 °C and the “cytotoxicity in cell‐based assays” value [5] was “no cytotoxicity at tested concentrations”.
In the case of `Nc1c(/N=N/c2ccc(-c3ccc(/N=N/c4cc(S(=O)(=O)O)c5ccccc5c4N)cc3)cc2)cc(S(=O)(=O)O)c2ccccc12` [Congo red], the IC50 (SARS‐CoV‐2 Nsp15 [1]; [9]) is given as 7.5 µM and the IC50 (SARS‐CoV Nsp15) is given as 2.5 µM.
With `CC[N+](C)(CC)CCC[n+]1c(-c2ccccc2)c2cc(N)ccc2c2ccc(N)cc21.[I-].[I-]` [Propidium‐iodide] the IC50 (SARS‐CoV‐2 Nsp15 [1]; [8]) was 0.9 µM, the IC50 (SARS‐CoV‐2 Nsp15 [1]; [14]) was 0.95 µM and the “HC inhibition % +DTT 10 µM” value (SARS‐CoV‐2 Nsp15 [1]; hit confirmation, 10 µM, DTT buffer) was 85,94%. For the same compound, the “PS Inhibition % 10 µM” value (SARS‐CoV‐2 Nsp15 [1]; primary screen, 10 µM (Table S1)) was 83,07%, the “PS inhibition % 10 μM (single point measurement)” value (SARS‐CoV‐2 Nsp15 [1]; primary screen, 10 μM compound, 1 mM DTT buffer, normalized to 50 μM Congo red (100%) and DMSO (0%)) was 83.1% and the “Inhibition % +L-Cys 10 µM” value (SARS‐CoV‐2 Nsp15 [2]; 10 µM, L-cysteine buffer) was 68,98%. The IC50 (SARS‐CoV‐2 Nsp15 [2]; [13]) was 9 µM, the “effect on the hexameric Nsp15 structure (DLS)” value (Nsp15 [6]) was “significantly affected the hexameric Nsp15 structure” and the “ΔT m°C nDSF” value (Nsp15 [3]) was 0.7 °C.
For `CC[n+]1c(-c2ccccc2)c2cc(N)ccc2c2ccc(N)cc21` [Homidium bromide], the “quenching ratio of the fluorescence signal” value [7] was 26.13%.
